Here are results for 14 compounds from PubChem BioAssay (NCI).

Among the test systems are HS 578T breast; IGROV1 ovarian; M14 melanoma; MDA-MB-435; NCI/ADR-RES ovarian; OVCAR-5 ovarian; SNB-75 CNS; TK-10 renal; UACC-62 melanoma; UO-31 renal.
Common to all, as to experiment: growth of human tumour cells (NCI), 48 h

SMILES strings stand for the structures.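 Results reflect a 48-hour exposure of cells in 96-well plates to compound at five concentrations. At the TGI there is no net growth.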

As to `COc1cc(O)c2c(=O)c(OC)c(-c3ccc(OC)c(O)c3)oc2c1`, the TGI with HS 578T breast, in the test on IGROV1 ovarian, with M14 melanoma, in the test on MDA-MB-435, with NCI/ADR-RES ovarian and in the test on OVCAR-5 ovarian was greater than 100 µM in each case. Moreover, the TGI in the test with SNB-75 CNS, in the test with TK-10 renal, in the test with UACC-62 melanoma and in the test with UO-31 renal was greater than 100 µM throughout.
As for `COc1cc(Nc2ccc3c(c2)CCC3)nc(OC)n1`, the TGI in the test on HS 578T breast is 42.6 µM; in the test on IGROV1 ovarian, greater than 100 µM; in the test on M14 melanoma it was greater than 100 µM; in the test with MDA-MB-435, greater than 100 µM; in the test on NCI/ADR-RES ovarian it was 65.5 µM; in the test with OVCAR-5 ovarian, greater than 100 µM. The figures for the TGI in the test with SNB-75 CNS, in the test with TK-10 renal and in the test on UACC-62 melanoma were 53.5 µM, greater than 100 µM and greater than 100 µM, respectively.
Consider `C/C1=C\[C@H](C)C[C@H](C)OC(=O)[C@H](C)NC(=O)[C@@H](Cc2ccc(O)c(Br)c2)N(C)C(=O)[C@H](C)NC(=O)[C@@H](C)C1`, for which the TGI was 3.76 µM with HS 578T breast; 0.105 µM in the test on IGROV1 ovarian; greater than 25 µM with M14 melanoma; greater than 25 µM in the test with MDA-MB-435; greater than 19.8 µM with NCI/ADR-RES ovarian; greater than 25 µM with OVCAR-5 ovarian. Besides, the TGI in the test with SNB-75 CNS was 0.0904 µM; with TK-10 renal, 0.269 µM; in the test on UACC-62 melanoma, greater than 25 µM; with UO-31 renal, 0.152 µM.
For `O=C(CNc1ccc(Cl)cc1Cl)Nn1c(-c2ccccc2)nc2ccccc2c1=O`, the TGI turned out to be 71.8 µM in the test on HS 578T breast; 42.2 µM with IGROV1 ovarian; 30.8 µM with M14 melanoma; 30.2 µM with MDA-MB-435; 52.9 µM in the test with NCI/ADR-RES ovarian; 37.5 µM in the test on OVCAR-5 ovarian. Further, the TGI in the test on SNB-75 CNS was determined as 30.5 µM; in the test with TK-10 renal, 36.1 µM; in the test with UACC-62 melanoma, 19.5 µM; with UO-31 renal, 48.4 µM.
On to `COc1ccc(C(=O)NCCN(C)C)c2nc3ccccc3cc12`, for which the TGI came out at 4.91 µM in the test with HS 578T breast; 6.18 µM in the test with IGROV1 ovarian; 2.99 µM in the test with M14 melanoma; 5.13 µM with MDA-MB-435; 5.22 µM with NCI/ADR-RES ovarian; 8.06 µM in the test on OVCAR-5 ovarian. The TGI in the test with SNB-75 CNS came to 13.3 µM; with TK-10 renal, 5.42 µM; with UACC-62 melanoma, 4.62 µM; with UO-31 renal it was 5.14 µM.
As to `O=c1onc2n1-c1cc(Cl)ccc1C(=S)N1CSCC21` (centres undefined), the TGI with HS 578T breast, in the test with IGROV1 ovarian, in the test with M14 melanoma, with MDA-MB-435, with NCI/ADR-RES ovarian and with OVCAR-5 ovarian was greater than 100 µM each time. For the same compound, the TGI in the test on SNB-75 CNS, with TK-10 renal, in the test on UACC-62 melanoma and with UO-31 renal was greater than 100 µM each time.
Consider `Nc1ncc2c(n1)-c1ccccc1OC2N1CCCC1` (centres undefined), for which the TGI in the test on HS 578T breast, in the test on IGROV1 ovarian, in the test with M14 melanoma, in the test with MDA-MB-435, in the test with NCI/ADR-RES ovarian and in the test with OVCAR-5 ovarian was greater than 100 µM in each case. Besides, the TGI with SNB-75 CNS, in the test with TK-10 renal, in the test with UACC-62 melanoma and in the test with UO-31 renal was greater than 100 µM in each case.
For `CCOC(=O)CC/C(=N/Nc1ccc(Cl)cc1[N+](=O)[O-])C(=O)OCC`, the TGI in the test on HS 578T breast, in the test with IGROV1 ovarian, with M14 melanoma, in the test with MDA-MB-435, in the test with NCI/ADR-RES ovarian and in the test on OVCAR-5 ovarian was greater than 100 µM in each case. Further, the TGI with SNB-75 CNS, in the test with TK-10 renal, in the test on UACC-62 melanoma and in the test with UO-31 renal was greater than 100 µM each time.
As for `O=c1c2c(no[n+]2[O-])c2ccccc2n1-c1ccccc1`, the TGI turned out to be 39.1 µM with HS 578T breast; 10 µM in the test with IGROV1 ovarian; 8.25 µM in the test with M14 melanoma; 14.6 µM with MDA-MB-435; 21.6 µM with NCI/ADR-RES ovarian; 21.9 µM in the test on OVCAR-5 ovarian. In addition, the TGI in the test with SNB-75 CNS was 19.2 µM; in the test on TK-10 renal, 27.2 µM; in the test on UACC-62 melanoma it was 13.7 µM; in the test with UO-31 renal, 16.6 µM.
Turning to `c1ccc(C2=NOC(c3ccccc3)N2C23CC4CC(CC(C4)C2)C3)cc1` (centres undefined), the TGI in the test on HS 578T breast, with IGROV1 ovarian, in the test with M14 melanoma, in the test on MDA-MB-435, in the test on NCI/ADR-RES ovarian and with OVCAR-5 ovarian was greater than 10 µM throughout. Moreover, the TGI in the test with SNB-75 CNS, in the test with TK-10 renal and in the test on UACC-62 melanoma was greater than 10 µM in each case.
Consider `N#Cc1sc2c(c1OC(=O)c1ccc(C(F)(F)F)cc1)c(=O)n(-c1ccccc1)c(=S)n2-c1ccccc1`, for which the TGI in the test on HS 578T breast was 91.7 µM; in the test with IGROV1 ovarian it was 56.2 µM; in the test on M14 melanoma, 81.7 µM; with MDA-MB-435, 94.3 µM; in the test with NCI/ADR-RES ovarian, greater than 100 µM; in the test with OVCAR-5 ovarian, greater than 100 µM. For the same compound, the results for the TGI in the test on SNB-75 CNS, in the test with TK-10 renal and in the test on UACC-62 melanoma were 85.7 µM, greater than 100 µM and 50.9 µM, respectively.
For the compound `Cc1ccc(/C=C2/N=C(N/N=C\C(O)C(O)C(O)C(O)CO)NC2=O)cc1` (centres undefined), the TGI in the test with HS 578T breast, in the test on IGROV1 ovarian, with M14 melanoma, with MDA-MB-435, with NCI/ADR-RES ovarian and with OVCAR-5 ovarian was greater than 100 µM throughout. Also, the TGI in the test on SNB-75 CNS, in the test on TK-10 renal and in the test on UO-31 renal was greater than 100 µM throughout.
With `COc1cc(C=O)ccc1O`, the TGI in the test with HS 578T breast, in the test on IGROV1 ovarian, in the test with M14 melanoma, in the test with MDA-MB-435, with NCI/ADR-RES ovarian and in the test on OVCAR-5 ovarian was greater than 100 µM in each case. Besides, the TGI in the test on SNB-75 CNS, in the test with TK-10 renal and in the test on UO-31 renal was greater than 100 µM throughout.
Turning to `COc1ccc2oc(=N)c(C(=O)Nc3ccccc3)cc2c1`, the TGI with HS 578T breast was 39.6 µM; with IGROV1 ovarian, 97.4 µM; in the test with M14 melanoma, greater than 100 µM; with MDA-MB-435, 32.3 µM; with NCI/ADR-RES ovarian, 44 µM; in the test on OVCAR-5 ovarian it was greater than 100 µM. Besides, the TGI is 28 µM in the test with SNB-75 CNS, greater than 100 µM with TK-10 renal and greater than 100 µM in the test with UO-31 renal.
